Test results reported in patent US4442044A, “Process for preparing monoesters and diesters of N-alkyl substituted amino methyl phosphonic acid” (priority 1983, dated 1984).

Key:
Test in all cases: post-emergent herbicidal activity, greenhouse
Format in all cases: in vivo
Barnyardgrass = tested on: Barnyardgrass
Outline: (§1)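 Seeds or propagules sown in compacted top soil, grown 2–3 weeks in greenhouse, then sprayed with compound solution/suspension containing ~0.4% emulsifier at tabulated rates. Injury scored visually versus untreated controls at ~2 and 4 weeks after treatment, expressed as a herbicidal activity index.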

Panicum Spp = conditions: Table II
Outline: as §1

Sugar Beet = conditions: Table II
Outline: as §1

Cocklebur = conditions: 4 WAT
Outline: as §1

Downy Brome = tested on: Downy Brome
Outline: as §1

Morningglory = tested on: Morningglory
Outline: as §1

Rice = conditions: Table II
Outline: as §1

Crabgrass = conditions: Table II
Outline: as §1

Smartweed = conditions: 4 WAT
Outline: as §1

Johnsongrass = conditions: Table I, 4 WAT
Outline: as §1

Quackgrass = conditions: Table I, 4 WAT
Outline: as §1

Canada Thistle = conditions: Table I, 4 WAT
Outline: as §1

Wild Buckwheat = conditions: Table II
Outline: as §1

Yellow Nutsedge = conditions: Table I, 4 WAT
Outline: as §1

Velvetleaf = tested on: Velvetleaf
Outline: as §1

Wheat = conditions: Table II
Outline: as §1

Soybean = conditions: Table II
Outline: as §1

Sorghum = conditions: Table II
Outline: as §1

Lambsquarters = tested on: Lambsquarters
Outline: as §1

Hemp Sesbania = conditions: Table II, 1.12 kg/h
Outline: as §1

CCOC(=O)CNCP(=O)(OCC1COC(C)(C)O1)OCC1COC(C)(C)O1 (stereo not shown) [Example 22, glycine, N-[[bis[(2,2-dimethyl-1,3-dioxolan-4-yl)methoxy]phosphinyl]methyl]-, ethyl ester]
post-emergent herbicidal activity index (Barnyardgrass; Table I, 4 WAT, 11.2 kg/h): 3 (75-99% control)
post-emergent herbicidal activity index (Barnyardgrass; Table I, 4 WAT, 56.0 kg/h): 3 (75-99% control)
post-emergent herbicidal activity index (Barnyardgrass; Table II, 2 WAT, 1.12 kg/h): 1 (25-49% control)
post-emergent herbicidal activity index (Barnyardgrass; Table II, 4 WAT, 5.6 kg/h): 2 (50-74% control)
post-emergent herbicidal activity index (Panicum Spp; 2 WAT, 1.12 kg/h): 0 (0-24% control)
post-emergent herbicidal activity index (Panicum Spp; 4 WAT, 5.6 kg/h): 3 (75-99% control)
post-emergent herbicidal activity index (Sugar Beet; 2 WAT, 1.12 kg/h): 0 (0-24% control)
post-emergent herbicidal activity index (Sugar Beet; 4 WAT, 5.6 kg/h): 0 (0-24% control)
post-emergent herbicidal activity index (Cocklebur; Table I, 11.2 kg/h): 0 (0-24% control)
post-emergent herbicidal activity index (Cocklebur; Table I, 56.0 kg/h): 2 (50-74% control)
post-emergent herbicidal activity index (Cocklebur; Table II, 5.6 kg/h): 0 (0-24% control)
post-emergent herbicidal activity index (Downy Brome; Table I, 4 WAT, 11.2 kg/h): 0 (0-24% control)
post-emergent herbicidal activity index (Downy Brome; Table I, 4 WAT, 56.0 kg/h): 2 (50-74% control)
post-emergent herbicidal activity index (Downy Brome; Table II, 2 WAT, 1.12 kg/h): 0 (0-24% control)
post-emergent herbicidal activity index (Downy Brome; Table II, 4 WAT, 5.6 kg/h): 0 (0-24% control)
post-emergent herbicidal activity index (Morningglory; Table I, 4 WAT, 11.2 kg/h): 1 (25-49% control)
post-emergent herbicidal activity index (Morningglory; Table I, 4 WAT, 56.0 kg/h): 2 (50-74% control)
post-emergent herbicidal activity index (Morningglory; Table II, 2 WAT, 1.12 kg/h): 0 (0-24% control)
post-emergent herbicidal activity index (Morningglory; Table II, 4 WAT, 5.6 kg/h): 1 (25-49% control)
post-emergent herbicidal activity index (Rice; 2 WAT, 1.12 kg/h): 0 (0-24% control)
post-emergent herbicidal activity index (Rice; 4 WAT, 5.6 kg/h): 0 (0-24% control)
post-emergent herbicidal activity index (Crabgrass; 2 WAT, 1.12 kg/h): 1 (25-49% control)
post-emergent herbicidal activity index (Crabgrass; 4 WAT, 5.6 kg/h): 2 (50-74% control)
post-emergent herbicidal activity index (Smartweed; Table I, 11.2 kg/h): 0 (0-24% control)
post-emergent herbicidal activity index (Smartweed; Table I, 56.0 kg/h): 3 (75-99% control)
post-emergent herbicidal activity index (Johnsongrass; 11.2 kg/h): 0 (0-24% control)
post-emergent herbicidal activity index (Johnsongrass; 56.0 kg/h): 1 (25-49% control)
post-emergent herbicidal activity index (Quackgrass; 11.2 kg/h): 0 (0-24% control)
post-emergent herbicidal activity index (Quackgrass; 56.0 kg/h): 3 (75-99% control)
post-emergent herbicidal activity index (Canada Thistle; 11.2 kg/h): 0 (0-24% control)
post-emergent herbicidal activity index (Canada Thistle; 56.0 kg/h): 2 (50-74% control)
post-emergent herbicidal activity index (Wild Buckwheat; 2 WAT, 1.12 kg/h): 0 (0-24% control)
post-emergent herbicidal activity index (Wild Buckwheat; 4 WAT, 5.6 kg/h): 2 (50-74% control)
post-emergent herbicidal activity index (Yellow Nutsedge; 11.2 kg/h): 0 (0-24% control)
post-emergent herbicidal activity index (Yellow Nutsedge; 56.0 kg/h): 2 (50-74% control)
post-emergent herbicidal activity index (Velvetleaf; Table I, 4 WAT, 11.2 kg/h): 0 (0-24% control)
post-emergent herbicidal activity index (Velvetleaf; Table I, 4 WAT, 56.0 kg/h): 2 (50-74% control)
post-emergent herbicidal activity index (Velvetleaf; Table II, 2 WAT, 1.12 kg/h): 0 (0-24% control)
post-emergent herbicidal activity index (Velvetleaf; Table II, 4 WAT, 5.6 kg/h): 1 (25-49% control)
post-emergent herbicidal activity index (Wheat; 2 WAT, 1.12 kg/h): 0 (0-24% control)
post-emergent herbicidal activity index (Wheat; 4 WAT, 5.6 kg/h): 1 (25-49% control)
post-emergent herbicidal activity index (Soybean; 2 WAT, 1.12 kg/h): 0 (0-24% control)
post-emergent herbicidal activity index (Soybean; 4 WAT, 5.6 kg/h): 0 (0-24% control)
post-emergent herbicidal activity index (Sorghum; 2 WAT, 1.12 kg/h): 0 (0-24% control)
post-emergent herbicidal activity index (Sorghum; 4 WAT, 5.6 kg/h): 1 (25-49% control)
post-emergent herbicidal activity index (Lambsquarters; Table I, 4 WAT, 11.2 kg/h): 0 (0-24% control)
post-emergent herbicidal activity index (Lambsquarters; Table I, 4 WAT, 56.0 kg/h): 3 (75-99% control)
post-emergent herbicidal activity index (Lambsquarters; Table II, 2 WAT, 1.12 kg/h): 1 (25-49% control)
post-emergent herbicidal activity index (Lambsquarters; Table II, 4 WAT, 5.6 kg/h): 0 (0-24% control)
post-emergent herbicidal activity index (Hemp Sesbania; 2 WAT): 2 (50-74% control)

CCOC(=O)CNCP(=O)(OCCN1CCCC1)OCCN1CCCC1 [Example 24, glycine, N-[[bis[2-(1-pyrrolidinyl)ethoxy]phosphinyl]methyl]-, ethyl ester]
post-emergent herbicidal activity index (Barnyardgrass; Table I, 4 WAT, 5.6 kg/h): 2 (50-74% control)
post-emergent herbicidal activity index (Barnyardgrass; Table I, 4 WAT, 11.2 kg/h): 3 (75-99% control)
post-emergent herbicidal activity index (Barnyardgrass; Table II, 4 WAT, 1.12 kg/h): 1 (25-49% control)
post-emergent herbicidal activity index (Barnyardgrass; Table II, 4 WAT, 5.6 kg/h): 3 (75-99% control)
post-emergent herbicidal activity index (Panicum Spp; 4 WAT, 1.12 kg/h): 1 (25-49% control)
post-emergent herbicidal activity index (Panicum Spp; 4 WAT, 5.6 kg/h): 4 (100% control)
post-emergent herbicidal activity index (Sugar Beet; 4 WAT, 1.12 kg/h): 0 (0-24% control)
post-emergent herbicidal activity index (Sugar Beet; 4 WAT, 5.6 kg/h): 1 (25-49% control)
post-emergent herbicidal activity index (Cocklebur; Table I, 5.6 kg/h): 1 (25-49% control)
post-emergent herbicidal activity index (Cocklebur; Table I, 11.2 kg/h): 2 (50-74% control)
post-emergent herbicidal activity index (Cocklebur; Table II, 1.12 kg/h): 0 (0-24% control)
post-emergent herbicidal activity index (Cocklebur; Table II, 5.6 kg/h): 3 (75-99% control)
post-emergent herbicidal activity index (Downy Brome; Table I, 4 WAT, 5.6 kg/h): 0 (0-24% control)
post-emergent herbicidal activity index (Downy Brome; Table I, 4 WAT, 11.2 kg/h): 1 (25-49% control)
post-emergent herbicidal activity index (Downy Brome; Table II, 4 WAT, 1.12 kg/h): 0 (0-24% control)
post-emergent herbicidal activity index (Downy Brome; Table II, 4 WAT, 5.6 kg/h): 2 (50-74% control)
post-emergent herbicidal activity index (Morningglory; Table I, 4 WAT, 5.6 kg/h): 1 (25-49% control)
post-emergent herbicidal activity index (Morningglory; Table I, 4 WAT, 11.2 kg/h): 2 (50-74% control)
post-emergent herbicidal activity index (Morningglory; Table II, 4 WAT, 1.12 kg/h): 1 (25-49% control)
post-emergent herbicidal activity index (Morningglory; Table II, 4 WAT, 5.6 kg/h): 2 (50-74% control)
post-emergent herbicidal activity index (Rice; 4 WAT, 1.12 kg/h): 0 (0-24% control)
post-emergent herbicidal activity index (Rice; 4 WAT, 5.6 kg/h): 2 (50-74% control)
post-emergent herbicidal activity index (Crabgrass; 4 WAT, 1.12 kg/h): 2 (50-74% control)
post-emergent herbicidal activity index (Crabgrass; 4 WAT, 5.6 kg/h): 4 (100% control)
post-emergent herbicidal activity index (Smartweed; Table I, 5.6 kg/h): 2 (50-74% control)
post-emergent herbicidal activity index (Smartweed; Table I, 11.2 kg/h): 2 (50-74% control)
post-emergent herbicidal activity index (Smartweed; Table II, 1.12 kg/h): 2 (50-74% control)
post-emergent herbicidal activity index (Smartweed; Table II, 5.6 kg/h): 2 (50-74% control)
post-emergent herbicidal activity index (Johnsongrass; 5.6 kg/h): 1 (25-49% control)
post-emergent herbicidal activity index (Johnsongrass; 11.2 kg/h): 2 (50-74% control)
post-emergent herbicidal activity index (Quackgrass; 5.6 kg/h): 1 (25-49% control)
post-emergent herbicidal activity index (Quackgrass; 11.2 kg/h): 2 (50-74% control)
post-emergent herbicidal activity index (Canada Thistle; 5.6 kg/h): 1 (25-49% control)
post-emergent herbicidal activity index (Canada Thistle; 11.2 kg/h): 1 (25-49% control)
post-emergent herbicidal activity index (Wild Buckwheat; 4 WAT, 1.12 kg/h): 0 (0-24% control)
post-emergent herbicidal activity index (Wild Buckwheat; 4 WAT, 5.6 kg/h): 1 (25-49% control)
post-emergent herbicidal activity index (Yellow Nutsedge; 5.6 kg/h): 2 (50-74% control)
post-emergent herbicidal activity index (Yellow Nutsedge; 11.2 kg/h): 1 (25-49% control)
post-emergent herbicidal activity index (Velvetleaf; Table I, 4 WAT, 5.6 kg/h): 1 (25-49% control)
post-emergent herbicidal activity index (Velvetleaf; Table I, 4 WAT, 11.2 kg/h): 1 (25-49% control)
post-emergent herbicidal activity index (Velvetleaf; Table II, 4 WAT, 1.12 kg/h): 0 (0-24% control)
post-emergent herbicidal activity index (Velvetleaf; Table II, 4 WAT, 5.6 kg/h): 2 (50-74% control)
post-emergent herbicidal activity index (Wheat; 4 WAT, 1.12 kg/h): 0 (0-24% control)
post-emergent herbicidal activity index (Wheat; 4 WAT, 5.6 kg/h): 2 (50-74% control)
post-emergent herbicidal activity index (Soybean; 4 WAT, 1.12 kg/h): 0 (0-24% control)
post-emergent herbicidal activity index (Soybean; 4 WAT, 5.6 kg/h): 2 (50-74% control)
post-emergent herbicidal activity index (Sorghum; 4 WAT, 1.12 kg/h): 0 (0-24% control)
post-emergent herbicidal activity index (Sorghum; 4 WAT, 5.6 kg/h): 2 (50-74% control)
post-emergent herbicidal activity index (Lambsquarters; Table I, 4 WAT, 5.6 kg/h): 3 (75-99% control)
post-emergent herbicidal activity index (Lambsquarters; Table I, 4 WAT, 11.2 kg/h): 1 (25-49% control)
post-emergent herbicidal activity index (Lambsquarters; Table II, 4 WAT, 1.12 kg/h): 1 (25-49% control)
post-emergent herbicidal activity index (Lambsquarters; Table II, 4 WAT, 5.6 kg/h): 3 (75-99% control)
post-emergent herbicidal activity index (Hemp Sesbania; 4 WAT): 1 (25-49% control)
